{"source": "patent US20250011348A1", "about": "“Synthesis Process of X-IPM, Stable Crystal Form and Application Thereof” (ASCENTAWITS PHARMACEUTICALS, LTD., priority 2023, published 2025)", "note": "Read-outs that look alike come from different tables or passages of the source.", "description": "On different days, samples were taken at the same time for analysis and detection of related substances, and their contents were recorded.", "data": [{"substance": "isophosphoramide nitrogen mustard [Br-IPM]", "values": [{"measurement": "Stability of the Br-IPM crystals on storage (in words)", "setting": "placed at 40° C.", "result": "unstable"}, {"measurement": "Br-IPM content in the analysis of related substances", "setting": "stored at 2-8° C., day 0", "result": 93.23, "unit": "%"}, {"measurement": "Br-IPM content in the analysis of related substances", "setting": "stored at 2-8° C., day 3", "result": 93.28, "unit": "%"}, {"measurement": "Br-IPM content in the analysis of related substances", "setting": "stored at 2-8° C., day 4", "result": 95.06, "unit": "%"}, {"measurement": "Br-IPM content in the analysis of related substances", "setting": "stored at 2-8° C., day 5", "result": 94.29, "unit": "%"}, {"measurement": "Br-IPM content in the analysis of related substances", "setting": "stored at 2-8° C., day 6", "result": 94.56, "unit": "%"}, {"measurement": "Br-IPM content in the analysis of related substances", "setting": "stored at 2-8° C., day 7", "result": 95.57, "unit": "%"}, {"measurement": "Br-IPM content in the analysis of related substances", "setting": "stored at 2-8° C., day 10", "result": 95.17, "unit": "%"}, {"measurement": "Br-IPM content in the analysis of related substances", "setting": "stored at 2-8° C., day 11", "result": 95.07, "unit": "%"}, {"measurement": "Br-IPM content in the analysis of related substances", "setting": "stored at 2-8° C., day 12", "result": 95.07, "unit": "%"}, {"measurement": "Br-IPM content in the analysis of related substances", "setting": "stored at 2-8° C., day 13", "result": 95.44, "unit": "%"}, {"measurement": "Br-IPM content in the analysis of related substances", "setting": "stored at 2-8° C., day 14", "result": 95.25, "unit": "%"}, {"measurement": "Br-IPM content in the analysis of related substances", "setting": "stored at 2-8° C., day 17", "result": 95.76, "unit": "%"}, {"measurement": "Br-IPM content in the analysis of related substances", "setting": "stored at 2-8° C., day 21", "result": 95.19, "unit": "%"}, {"measurement": "Br-IPM content in the analysis of related substances", "setting": "stored at 2-8° C., day 28", "result": 96.22, "unit": "%"}, {"measurement": "Br-IPM content in the analysis of related substances", "setting": "stored at 2-8° C., day 35", "result": 95.09, "unit": "%"}, {"measurement": "Time for which the Br-IPM crystals are relatively stable / can be stored", "setting": "stored at 25° C. (room temperature)", "result": 28, "unit": "days"}, {"measurement": "Br-IPM content in the analysis of related substances", "setting": "stored at 25° C., day 0", "result": 93.23, "unit": "%"}, {"measurement": "Br-IPM content in the analysis of related substances", "setting": "stored at 25° C., day 3", "result": 94.17, "unit": "%"}, {"measurement": "Br-IPM content in the analysis of related substances", "setting": "stored at 25° C., day 4", "result": 94.89, "unit": "%"}, {"measurement": "Br-IPM content in the analysis of related substances", "setting": "stored at 25° C., day 5", "result": 94.53, "unit": "%"}, {"measurement": "Br-IPM content in the analysis of related substances", "setting": "stored at 25° C., day 6", "result": 94.32, "unit": "%"}, {"measurement": "Br-IPM content in the analysis of related substances", "setting": "stored at 25° C., day 7", "result": 93.86, "unit": "%"}, {"measurement": "Br-IPM content in the analysis of related substances", "setting": "stored at 25° C., day 10", "result": 94.64, "unit": "%"}, {"measurement": "Br-IPM content in the analysis of related substances", "setting": "stored at 25° C., day 11", "result": 95.25, "unit": "%"}, {"measurement": "Br-IPM content in the analysis of related substances", "setting": "stored at 25° C., day 12", "result": 94.97, "unit": "%"}, {"measurement": "Br-IPM content in the analysis of related substances", "setting": "stored at 25° C., day 13", "result": 95.28, "unit": "%"}, {"measurement": "Br-IPM content in the analysis of related substances", "setting": "stored at 25° C., day 14", "result": 94.61, "unit": "%"}, {"measurement": "Br-IPM content in the analysis of related substances", "setting": "stored at 25° C., day 17", "result": 94.75, "unit": "%"}, {"measurement": "Br-IPM content in the analysis of related substances", "setting": "stored at 25° C., day 21", "result": 93.81, "unit": "%"}, {"measurement": "Br-IPM content in the analysis of related substances", "setting": "stored at 25° C., day 28", "result": 94.01, "unit": "%"}, {"measurement": "Br-IPM content in the analysis of related substances", "setting": "stored at 25° C., day 35", "result": 91.42, "unit": "%"}, {"measurement": "Br-IPM content in the analysis of related substances", "setting": "stored at 40° C., day 0", "result": 93.23, "unit": "%"}, {"measurement": "Br-IPM content in the analysis of related substances", "setting": "stored at 40° C., day 3", "result": 86.36, "unit": "%"}, {"measurement": "Br-IPM content in the analysis of related substances", "setting": "stored at −5° C., day 0", "result": 93.23, "unit": "%"}, {"measurement": "Br-IPM content in the analysis of related substances", "setting": "stored at −5° C., day 3", "result": 94.65, "unit": "%"}, {"measurement": "Br-IPM content in the analysis of related substances", "setting": "stored at −5° C., day 4", "result": 95.12, "unit": "%"}, {"measurement": "Br-IPM content in the analysis of related substances", "setting": "stored at −5° C., day 5", "result": 94.07, "unit": "%"}, {"measurement": "Br-IPM content in the analysis of related substances", "setting": "stored at −5° C., day 6", "result": 95.48, "unit": "%"}, {"measurement": "Br-IPM content in the analysis of related substances", "setting": "stored at −5° C., day 7", "result": 94.96, "unit": "%"}, {"measurement": "Br-IPM content in the analysis of related substances", "setting": "stored at −5° C., day 10", "result": 95.03, "unit": "%"}, {"measurement": "Br-IPM content in the analysis of related substances", "setting": "stored at −5° C., day 11", "result": 95.50, "unit": "%"}, {"measurement": "Br-IPM content in the analysis of related substances", "setting": "stored at −5° C., day 12", "result": 95.04, "unit": "%"}, {"measurement": "Br-IPM content in the analysis of related substances", "setting": "stored at −5° C., day 13", "result": 95.23, "unit": "%"}, {"measurement": "Br-IPM content in the analysis of related substances", "setting": "stored at −5° C., day 14", "result": 95.28, "unit": "%"}, {"measurement": "Br-IPM content in the analysis of related substances", "setting": "stored at −5° C., day 17", "result": 95.07, "unit": "%"}, {"measurement": "Br-IPM content in the analysis of related substances", "setting": "stored at −5° C., day 21", "result": 95.30, "unit": "%"}, {"measurement": "Br-IPM content in the analysis of related substances", "setting": "stored at −5° C., day 28", "result": 94.83, "unit": "%"}, {"measurement": "Br-IPM content in the analysis of related substances", "setting": "stored at −5° C., day 35", "result": 94.64, "unit": "%"}]}]}
